pKi: −log10 of the molar value. Active and inactive are the calls of the source. The calls are words filed in the database; no cut-off is given here.
How the values were obtained:
[1] = target: T1, Protein-serine/threonine kinase (Sus scrofa) (UniProt F1RUX3); experiment: Inhibition of GRK2 in porcine trabecular meshwork cells assessed as F-actin depolymerization at 50 uM after 20 mins by Alexa-fluor 488-labelled phalloidin/DAPI staining assay relative to control
T1 sequence (whole entry): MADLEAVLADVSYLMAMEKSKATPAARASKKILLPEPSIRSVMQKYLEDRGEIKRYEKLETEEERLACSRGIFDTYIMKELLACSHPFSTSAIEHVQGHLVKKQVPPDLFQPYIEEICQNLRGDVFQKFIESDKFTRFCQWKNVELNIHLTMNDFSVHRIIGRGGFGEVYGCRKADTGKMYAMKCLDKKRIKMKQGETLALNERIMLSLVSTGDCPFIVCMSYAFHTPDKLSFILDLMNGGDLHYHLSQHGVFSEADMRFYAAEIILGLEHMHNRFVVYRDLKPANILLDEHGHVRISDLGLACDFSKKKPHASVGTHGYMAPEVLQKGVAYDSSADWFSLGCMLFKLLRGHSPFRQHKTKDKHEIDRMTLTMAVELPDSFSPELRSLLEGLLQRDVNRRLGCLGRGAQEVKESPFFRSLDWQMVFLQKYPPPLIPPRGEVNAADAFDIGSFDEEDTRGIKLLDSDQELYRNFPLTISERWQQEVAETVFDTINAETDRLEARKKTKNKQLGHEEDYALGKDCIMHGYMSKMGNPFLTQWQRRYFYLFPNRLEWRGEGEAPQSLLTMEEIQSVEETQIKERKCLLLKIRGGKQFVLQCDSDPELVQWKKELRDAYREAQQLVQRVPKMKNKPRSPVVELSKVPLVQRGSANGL

[2] = system: Felis catus; experiment: Antiglaucoma activity in cat assessed as decrease of hyperemia administered topically; assay type: functional, organism-based
[3] = target: T2, Beta-adrenergic receptor kinase 1 (Homo sapiens) (UniProt P25098); experiment: Inhibition of GRK2 in HEK293 cells overexpressing beta 2 adrenergic receptor assessed as increase in c-AMP accumulation in presence of isoproterenol; assay type: cell-based
T2 sequence (whole entry): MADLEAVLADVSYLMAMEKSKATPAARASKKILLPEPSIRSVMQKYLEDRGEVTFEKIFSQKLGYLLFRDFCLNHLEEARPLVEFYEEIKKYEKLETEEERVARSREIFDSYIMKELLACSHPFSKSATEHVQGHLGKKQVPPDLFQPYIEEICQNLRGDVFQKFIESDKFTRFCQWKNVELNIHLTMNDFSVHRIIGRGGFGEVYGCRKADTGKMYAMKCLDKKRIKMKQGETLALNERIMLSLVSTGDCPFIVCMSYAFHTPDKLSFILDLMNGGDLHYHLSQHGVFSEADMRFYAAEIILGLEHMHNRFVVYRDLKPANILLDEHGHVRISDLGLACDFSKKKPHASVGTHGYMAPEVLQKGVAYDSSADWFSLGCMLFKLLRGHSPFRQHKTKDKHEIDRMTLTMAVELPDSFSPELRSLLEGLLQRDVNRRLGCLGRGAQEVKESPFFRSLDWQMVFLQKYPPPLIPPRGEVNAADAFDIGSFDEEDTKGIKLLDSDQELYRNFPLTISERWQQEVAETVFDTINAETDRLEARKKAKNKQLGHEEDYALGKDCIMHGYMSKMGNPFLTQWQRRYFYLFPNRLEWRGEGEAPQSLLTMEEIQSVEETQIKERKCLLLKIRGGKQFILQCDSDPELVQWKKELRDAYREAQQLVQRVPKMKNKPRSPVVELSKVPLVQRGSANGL

[4] = system: Felis catus; experiment: Antiglaucoma activity in cat assessed as decrease of redness administered topically; assay type: functional, organism-based
[5] = system: Felis catus; experiment: Antiglaucoma activity in cat assessed as decrease of ocular irritation administered topically; assay type: functional, organism-based; details: Eye
[6] = system: Felis catus; experiment: Antiglaucoma activity in cat assessed as decrease of allergic symptoms administered topically twice per day on eye; assay type: functional, organism-based
[7] = system: Felis catus; experiment: Antiglaucoma activity in cat assessed as decrease of dry eye syndrome administered topically twice per day on eye; assay type: functional, organism-based
[8] = system: Felis catus; experiment: Antiglaucoma activity in cat assessed as decrease in intraocular pressure administered topically 4 times per day on eye measured after 1 to 23 hrs by pneumatonometer; assay type: functional, organism-based
[9] = target: G protein-coupled receptor kinase 6 (Homo sapiens, UniProt P43250); experiment: Inhibition of GRK6 (unknown origin) after 90 to 120 mins by Kinase-Glo assay
[10] = system: Felis catus; experiment: Antiglaucoma activity in cat assessed as decrease in intraocular pressure administered topically twice per day on eye measured after 1 to 23 hrs by pneumatonometer; assay type: functional, organism-based
[11] = target: T3, Beta-adrenergic receptor kinase 1 (Homo sapiens, UniProt P25098); experiment: Inhibition of human GRK2 after 90 to 120 mins by Kinase-Glo assay
T3 sequence (P25098 whole entry): T2 sequence (whole entry)

[12] = target: G protein-coupled receptor kinase 5 (Homo sapiens, UniProt P34947); experiment: Inhibition of GRK5 (unknown origin) after 90 to 120 mins by Kinase-Glo assay
G protein-coupled receptor kinase 5, sequence (P34947 whole entry): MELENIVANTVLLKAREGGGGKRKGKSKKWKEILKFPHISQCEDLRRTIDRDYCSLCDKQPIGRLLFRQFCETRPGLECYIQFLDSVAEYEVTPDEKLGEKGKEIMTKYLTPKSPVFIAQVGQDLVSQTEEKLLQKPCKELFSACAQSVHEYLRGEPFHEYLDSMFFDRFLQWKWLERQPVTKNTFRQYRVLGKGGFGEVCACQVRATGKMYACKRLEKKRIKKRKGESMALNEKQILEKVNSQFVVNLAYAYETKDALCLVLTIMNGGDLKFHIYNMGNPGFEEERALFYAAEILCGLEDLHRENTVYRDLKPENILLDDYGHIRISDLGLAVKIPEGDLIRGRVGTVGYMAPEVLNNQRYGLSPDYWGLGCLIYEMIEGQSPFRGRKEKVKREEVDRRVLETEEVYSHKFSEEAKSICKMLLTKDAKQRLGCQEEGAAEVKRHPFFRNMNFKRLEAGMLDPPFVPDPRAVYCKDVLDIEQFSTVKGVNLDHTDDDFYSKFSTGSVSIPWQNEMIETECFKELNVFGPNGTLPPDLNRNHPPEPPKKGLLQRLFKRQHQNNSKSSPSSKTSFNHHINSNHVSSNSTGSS

G protein-coupled receptor kinase 6, sequence (P43250 whole entry): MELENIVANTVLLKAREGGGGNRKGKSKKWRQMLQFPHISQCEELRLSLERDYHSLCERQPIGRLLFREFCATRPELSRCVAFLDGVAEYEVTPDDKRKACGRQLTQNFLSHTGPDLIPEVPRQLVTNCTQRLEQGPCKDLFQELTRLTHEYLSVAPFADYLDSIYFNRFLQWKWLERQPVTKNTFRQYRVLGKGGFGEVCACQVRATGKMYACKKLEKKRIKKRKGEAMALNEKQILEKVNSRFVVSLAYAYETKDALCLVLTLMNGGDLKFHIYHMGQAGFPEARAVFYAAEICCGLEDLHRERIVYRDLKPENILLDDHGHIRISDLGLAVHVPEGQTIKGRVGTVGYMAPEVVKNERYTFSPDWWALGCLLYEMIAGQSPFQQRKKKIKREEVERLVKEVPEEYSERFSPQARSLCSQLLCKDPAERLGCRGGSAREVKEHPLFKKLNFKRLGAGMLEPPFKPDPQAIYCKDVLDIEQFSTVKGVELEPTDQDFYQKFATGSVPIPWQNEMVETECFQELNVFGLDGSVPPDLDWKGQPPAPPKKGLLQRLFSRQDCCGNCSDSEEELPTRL

**Q.** With CNC(=O)c1cccc(NCC(=O)N/N=C/c2c(Cl)cncc2Cl)c1 as the molecule, how does the “GRK2 inhibition activity call (active/not active)” value [1] read?
**A.** inactive

**Q.** How did the “GRK2 inhibition activity call (active/not active)” value [1] turn out when O=C(CNc1cccc(C(=O)Nc2cccnc2)c1)N/N=C/c1ccncc1 was run?
**A.** Active

**Q.** With COc1cc(/C=N/NC(=O)CNc2cccc(Cl)c2)nc(OC)n1 as the molecule, how does the “GRK2 inhibition activity call (active/not active)” value [1] read?
**A.** inactive

**Q.** For C/C(=N\NC(=O)CNc1cccc(C(=O)Nc2ccccc2)c1)c1ccncc1, which “GRK2 inhibition activity call (active/not active)” value [1] is on record?
**A.** inactive

**Q.** Which results are given for NC(=O)c1cccc(NCC(=O)N/N=C/c2ccncc2)c1?
**A.** Activity [2]: Active; inhibition [3]: Active; Activity [4]: Active; Activity [5]: Active

**Q.** Which Activity [6] does the source give for Cc1ccc(Oc2cccc(NCC(=O)N/N=C/c3ccncc3)c2)cc1 here?
**A.** Active

**Q.** What about the Activity [7] of the same molecule?
**A.** Active

**Q.** O=C(CNc1cccc(C(=O)NCCN2CCOCC2)c1)N/N=C/c1ccncc1 was tested. Which Activity [8] did it give?
**A.** Active

**Q.** With O=C(CNc1cccc(OCc2ccccc2)c1)N/N=C/c1ccncc1 as the molecule, how does the pKi [9] read?
**A.** < 5.00

**Q.** How did the “GRK2 inhibition activity call (active/not active)” value [1] turn out when O=C(CNc1cccc(C(=O)NCCN2CCOCC2)c1)N/N=C/c1c(Cl)cncc1Cl was run?
**A.** inactive

**Q.** For NC(=O)c1ccc(NCC(=O)N/N=C/c2c(Cl)cncc2Cl)cc1, which Activity [10] is on record?
**A.** Active

**Q.** CCc1cccc(NCC(=O)N/N=C/c2c(Cl)cncc2Cl)c1 was tested. Which pKi [11] did it give?
**A.** < 5.00

**Q.** Which “GRK2 inhibition activity call (active/not active)” value [1] does the source give for COc1ccc(Oc2cccc(NCC(=O)NN=Cc3ccncc3)c2)cc1 (mixture of isomers) here?
**A.** inactive

**Q.** With O=C(CNc1ccc(Oc2ccccc2)cc1)N/N=C/c1c(Cl)cncc1Cl as the molecule, how does the “GRK2 inhibition activity call (active/not active)” value [1] read?
**A.** inactive

**Q.** How did the pKi [12] turn out when O=C(CNc1cccc(C(=O)Nc2ccccc2)c1)N/N=C/c1ccncc1 was run?
**A.** < 5.00

**Q.** And the “GRK2 inhibition activity call (active/not active)” value [1]?
**A.** Active

**Q.** What does the source list for O=C(CNc1cccc(C(=O)Nc2ccccc2)c1)N/N=C/c1c(Cl)cncc1Cl?
**A.** pKi [9]: < 5.00; GRK2 inhibition activity call (active/not active) [1]: Active

— ChEMBL document CHEMBL3727367, “Hydrazide compounds” (2007)
